Each structure is given as a SMILES string.

The results in this text go back to US20260274892A1, “MACROCYCLIC BROAD SPECTRUM ANTIBIOTICS” (RQx Pharmaceuticals, Inc., priority 2017, published 2026).

For test [1], the system named is Methicillin Resistant Staphylococcus aureus strain USA 200. Briefly: Minimum inhibitory concentration (MIC), CLSI broth micro-dilution, S. aureus. The format is cell-based. The conditions noted are these: Staphylococcus aureus, MRSA / USA200, MRSA USA 200, cation adjusted Mueller Hinton Broth + 0.002% Tween-80, 35° C., 22 hours. In short, it runs like this:
(§1)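 Colonies grown 20 h at 35° C on Trypticase Soy agar (MRSA) or Luria agar (E. coli) were suspended in cation-adjusted Mueller Hinton broth with 0.002% Tween-80. Suspensions were added at OD600 0.0005 to 10-point twofold compound dilutions, then incubated 22 h at 35° C.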
For orientation: In broth dilution the organism is exposed to a series of concentrations in liquid medium.

The subject of test [2] is Escherichia coli ATCC 25922. The test can be described thus: Minimum inhibitory concentration (MIC), CLSI broth micro-dilution, E. coli. The format is cell-based. To be noted: Escherichia coli, ATCC25922, 22 h. In short, it runs like this:
as §1

Where [3] appears, read: Table 6, cation adjusted Mueller Hinton Broth + 0.002% Tween-80, 35° C.

For the molecule `Cc1nc(-c2ccc(C(C)(C)C)cc2)nc(C)c1C(=O)NCC(=O)N[C@@H](CCN)C(=O)N(C)[C@@H]1C(=O)N[C@@H](C)C(=O)N[C@H](C(=O)NCC#N)Cc2ccc(OCCN)c(c2)-c2cc1ccc2OCCN` (racemic) [Compound 470, rac-(8S,11S,14S)-3,18-bis(2-aminoethoxy)-N-(cyanomethyl)-11-methyl-14-[methyl-[rac-(2S)-4-amino-2-[[2-[[2-(4-tert-butylphenyl)-4,6-dimethyl-pyrimidine-5-carbonyl]amino]acetyl]amino]butanoyl]amino]-10,13-dioxo-9,12-diazatricyclo[13.3.1.12,6]icosa-1(18),2(20),3,5,15(19),16-hexaene-8-carboxamide], the MIC (as a rule, the lowest concentration that inhibits growth of the organism) in test [1] (Table 6) was 0.047 µM; in test [2] (setting [3]) it was 4 µM.

As to `CCCCc1ccc(-c2nc(C)c(C(=O)N[C@@H](CCN)C(=O)N(C)[C@@H]3C(=O)N[C@@H](C)C(=O)N[C@H](C(=O)NCC#N)Cc4ccc(OCCN)c(c4)-c4cc3ccc4OCCN)c(C)n2)cc1CCCC` (racemic) [Compound 268, rac-(8S,11S,14S)-3,18-bis(2-aminoethoxy)-N-(cyanomethyl)-11-methyl-14-[methyl-[rac-(2S)-4-amino-2-[[2-(3,4-dibutylphenyl)-4,6-dimethyl-pyrimidine-5-carbonyl]amino]butanoyl]amino]-10,13-dioxo-9,12-diazatricyclo[13.3.1.12,6]icosa-1(18),2(20),3,5,15(19),16-hexaene-8-carboxamide], the values for the minimum inhibitory concentration (MIC) in test [1] (Table 6) and in test [2] (setting [3]) were 0.016 µM and 0.12 µM, respectively.

For the molecule `CCCCCCc1ccc(C(=O)N[C@@H](CCN)C(=O)N(CCO)[C@@H]2C(=O)N[C@@H](C)C(=O)N[C@H](C(=O)NCC#N)Cc3ccc(O)c(c3)-c3cc2ccc3O)c(C)c1` (racemic) [Compound 475, rac-(8S,11S,14S)-N-(cyanomethyl)-3,18-dihydroxy-14-[2-hydroxyethyl-[rac-(2S)-4-amino-2-[(4-hexyl-2-methyl-benzoyl)amino]butanoyl]amino]-11-methyl-10,13-dioxo-9,12-diazatricyclo[13.3.1.12,6]icosa-1(18),2(20),3,5,15(19),16-hexaene-8-carboxamide], the minimal inhibitory concentration (MIC) was found to be 0.6 µM in test [1] (Table 6) and 4.8 µM in test [2] (setting [3]).

As for `Cc1nc(-c2ccc(C(C)(C)C)cc2)nnc1C(=O)N[C@@H](CCN)C(=O)N(C)[C@@H]1C(=O)N[C@@H](C)C(=O)N[C@H](C(=O)NCC#N)Cc2ccc(OCCN)c(c2)-c2cc1ccc2OCCN` (racemic) [Compound 385, rac-(8S,11S,14S)-3,18-bis(2-aminoethoxy)-N-(cyanomethyl)-11-methyl-14-[methyl-[rac-(2S)-4-amino-2-[[3-(4-tert-butylphenyl)-5-methyl-1,2,4-triazine-6-carbonyl]amino]butanoyl]amino]-10,13-dioxo-9,12-diazatricyclo[13.3.1.12,6]icosa-1(18),2(20),3,5,15(19),16-hexaene-8-carboxamide], the MIC amounted to 0.017 µM in test [1] (Table 6) and 0.27 µM in test [2] (setting [3]).

With `CC(C)=Cc1ccc(C#Cc2nc(C)c(C(=O)N[C@@H](CCN)C(=O)N(C)[C@@H]3C(=O)N[C@@H](C)C(=O)N[C@H](C(=O)NCC#N)Cc4ccc(OCCN)c(c4)-c4cc3ccc4OCCN)c(C)n2)cc1` (racemic) [Compound 313, rac-(8S,11S,14S)-3,18-bis(2-aminoethoxy)-N-(cyanomethyl)-11-methyl-14-[methyl-[rac-(2S)-4-amino-2-[[4,6-dimethyl-2-[2-[4-(2-methylprop-1-enyl)phenyl]ethynyl]pyrimidine-5-carbonyl]amino]butanoyl]amino]-10,13-dioxo-9,12-diazatricyclo[13.3.1.12,6]icosa-1(18),2(20),3,5,15(19),16-hexaene-8-carboxamide], the results for the minimum inhibitory concentration (MIC) in test [1] (Table 6) and in test [2] (setting [3]) were 0.016 µM and 0.13 µM, respectively.

Turning to `Cc1nc(-c2ccc3c(c2)CCC3(C)C)ncc1C(=O)N[C@@H](CCN)C(=O)N(C)[C@@H]1C(=O)N[C@@H](C)C(=O)N[C@H](C(=O)NCC#N)Cc2ccc(OCCN)c(c2)-c2cc1ccc2OCCN` (racemic) [Compound 234, rac-(8S,11S,14S)-3,18-bis(2-aminoethoxy)-N-(cyanomethyl)-11-methyl-14-[methyl-[rac-(2S)-4-amino-2-[[2-(1,1-dimethylindan-5-yl)-4-methyl-pyrimidine-5-carbonyl]amino]butanoyl]amino]-10,13-dioxo-9,12-diazatricyclo[13.3.1.12,6]icosa-1(18),2(20),3,5,15(19),16-hexaene-8-carboxamide], the minimum inhibitory concentration (MIC) came out at 0.0082 µM in test [1] (Table 6) and 0.066 µM in test [2] (setting [3]).

Take `Cc1nc2ccc(Oc3ccc(C(C)(C)C)cc3)cc2cc1C(=O)N[C@@H](CCN)C(=O)N(C)[C@@H]1C(=O)N[C@@H](C)C(=O)N[C@H](C(=O)NCC#N)Cc2ccc(OCCN)c(c2)-c2cc1ccc2OCCN` (racemic) [Compound 397, rac-(8S,11S,14S)-3,18-bis(2-aminoethoxy)-N-(cyanomethyl)-11-methyl-14-[methyl-[rac-(2S)-4-amino-2-[[6-(4-tert-butylphenoxy)-2-methyl-quinoline-3-carbonyl]amino]butanoyl]amino]-10,13-dioxo-9,12-diazatricyclo[13.3.1.12,6]icosa-1(18),2(20),3,5,15(19),16-hexaene-8-carboxamide]: the minimum inhibitory concentration (MIC) in test [1] (Table 6) came out at 0.023 µM; in test [2] (setting [3]), 0.38 µM.

With `CCCC1(c2ccc(-c3nc(C)c(C(=O)N[C@@H](CCN)C(=O)N(C)[C@@H]4C(=O)N[C@@H](C)C(=O)N[C@H](C(=O)NCC#N)Cc5ccc(OCCN)c(c5)-c5cc4ccc5OCCN)c(C)n3)cc2)CC1` (racemic) [Compound 282, rac-(8S,11S,14S)-3,18-bis(2-aminoethoxy)-N-(cyanomethyl)-11-methyl-14-[methyl-[rac-(2S)-4-amino-2-[[4,6-dimethyl-2-[4-(1-propylcyclopropyl)phenyl]pyrimidine-5-carbonyl]amino]butanoyl]amino]-10,13-dioxo-9,12-diazatricyclo[13.3.1.12,6]icosa-1(18),2(20),3,5,15(19),16-hexaene-8-carboxamide], the figures for the MIC in test [1] (Table 6) and in test [2] (setting [3]) were 0.016 µM and 0.094 µM, respectively.

Consider `Cc1nc(-c2ccc(C(C)(C)C)cc2)cc(N)c1C(=O)N[C@@H](CCN)C(=O)N(C)[C@@H]1C(=O)N[C@@H](C)C(=O)N[C@H](C(=O)NCC#N)Cc2ccc(OCCN)c(c2)-c2cc1ccc2OCCN` (racemic) [Compound 413, rac-(8S,11S,14S)-3,18-bis(2-aminoethoxy)-N-(cyanomethyl)-11-methyl-14-[methyl-[rac-(2S)-4-amino-2-[[4-amino-6-(4-tert-butylphenyl)-2-methyl-pyridine-3-carbonyl]amino]butanoyl]amino]-10,13-dioxo-9,12-diazatricyclo[13.3.1.12,6]icosa-1(18),2(20),3,5,15(19),16-hexaene-8-carboxamide], for which the MIC in test [1] (Table 6) came out at 0.016 µM; in test [2] (setting [3]), 0.13 µM.

In the case of `CCCCCOc1ccc(-c2nc(C)c(C(=O)N[C@@H](CCN)C(=O)N(C)[C@@H]3C(=O)N[C@@H](C)C(=O)N[C@H](C(=O)O)Cc4ccc(O)c(c4)-c4cc3ccc4OCCN)c(C)n2)cc1` (racemic) [Compound 648, rac-(8S,11S,14S)-18-(2-aminoethoxy)-3-hydroxy-11-methyl-14-[methyl-[rac-(2S)-4-amino-2-[[4,6-dimethyl-2-(4-pentoxyphenyl)pyrimidine-5-carbonyl]amino]butanoyl]amino]-10,13-dioxo-9,12-diazatricyclo [13.3.1.12,6]icosa-1(18),2(20),3,5,15(19), 16-hexaene-8-carboxylic acid], the MIC in test [1] (Table 8) stood at 0.28 µM; in test [2] (Table 8, cation adjusted Mueller Hinton Broth + 0.002% Tween-80, 35° C.), 0.1 µM.

As to `CCCCOc1c(C)cc(-c2ncc(C(=O)N[C@@H](CCN)C(=O)N(C)[C@@H]3C(=O)N[C@@H](C)C(=O)N[C@H](C(=O)NCC#N)Cc4ccc(OCCN)c(c4)-c4cc3ccc4OCCN)c(C)n2)cc1C` (racemic) [Compound 243, rac-(8S,11S,14S)-3,18-bis(2-aminoethoxy)-N-(cyanomethyl)-11-methyl-14-[methyl-[rac-(2S)-4-amino-2-[[2-(4-butoxy-3,5-dimethyl-phenyl)-4-methyl-pyrimidine-5-carbonyl]amino]butanoyl]amino]-10,13-dioxo-9,12-diazatricyclo[13.3.1.12,6]icosa-1(18),2(20),3,5,15(19),16-hexaene-8-carboxamide], the MIC in test [1] (Table 6) is 0.008 µM; in test [2] (setting [3]), 0.13 µM.

Consider `CCCCCCc1ccc(C(=O)N[C@@H](CCN)C(=O)N(CC)[C@@H]2C(=O)N[C@@H](C)C(=O)N[C@H](C(=O)NCC#N)Cc3ccc(O)c(c3)-c3cc2ccc3O)c(C)c1` (racemic) [Compound 473, rac-(8S,11S,14S)-N-(cyanomethyl)-14-[ethyl-[rac-(2S)-4-amino-2-[(4-hexyl-2-methyl-benzoyl)amino]butanoyl]amino]-3,18-dihydroxy-11-methyl-10,13-dioxo-9,12-diazatricyclo[13.3.1.12,6]icosa-1(18),2(20),3,5,15(19),16-hexaene-8-carboxamide], for which the minimum inhibitory concentration (MIC) was 0.31 µM in test [1] (Table 6) and 4.9 µM in test [2] (setting [3]).

`Cc1nc(-c2ccc(C(C)(C)C)cc2)nc(Cl)c1C(=O)N[C@@H](CCN)C(=O)N(C)[C@@H]1C(=O)N[C@@H](C)C(=O)N[C@H](C(=O)NCC#N)Cc2ccc(OCCN)c(c2)-c2cc1ccc2OCCN` (racemic) [Compound 421, rac-(8S,11S,14S)-3,18-bis(2-aminoethoxy)-N-(cyanomethyl)-11-methyl-14-[methyl-[rac-(2S)-4-amino-2-[[2-(4-tert-butylphenyl)-4-chloro-6-methyl-pyrimidine-5-carbonyl]amino]butanoyl]amino]-10,13-dioxo-9,12-diazatricyclo[13.3.1.12,6]icosa-1(18),2(20),3,5,15(19),16-hexaene-8-carboxamide]: the minimal inhibitory concentration (MIC) in test [1] (Table 6) was 0.031 µM; in test [2] (setting [3]), 0.19 µM.
